Assay results reported in PMC9338265, “Pathogen-selective killing by guanylate-binding proteins as a molecular mechanism leading to inflammasome signaling” (Nature Communications, 2022).
Non-standard residues stand in square brackets, D forms with d. No end group written: not given here. *: point of attachment. FITC = O=C1OC2(c3ccc(O)cc3Oc3cc(O)ccc32)c2ccc(NC(=S)*)cc21; Ahx = NCCCCCC(=O)O

B1: mGBP1 (protein, UniProt Q01514 1-589, looked up)
Guanylate-binding protein 1: MASEIHMSEPMCLIENTEAQLVINQEALRILSAITQPVVVVAIVGLYRTGKSYLMNKLAGKRTGFSLGSTVQSHTKGIWMWCVPHPKKAGQTLVLLDTEGLEDVEKGDNQNDCWIFALAVLLSSTFIYNSIGTINQQAMDQLHYVTELTDLIKSKSSPDQSDVDNSANFVGFFPIFVWTLRDFSLDLEFDGESITPDEYLETSLALRKGTDENTKKFNMPRLCIRKFFPKRKCFIFDRPGDRKQLSKLEWIQEDQLNKEFVEQVAEFTSYIFSYSGVKTLSGGITVNGPRLKSLVQTYVSAICSGELPCMENAVLTLAQIENSAAVQKAITYYEEQMNQKIHMPTETLQELLDLHRTCEREAIEVFMKNSFKDVDQKFQEELGAQLEAKRDAFVKKNMDMSSAHCSDLLEGLFAHLEEEVKQGTFYKPGGYYLFLQRKQELEKKYIQTPGKGLQAEVMLRKYFESKEDLADTLLKMDQSLTEKEKQIEMERIKAEAAEAANRALAEMQKKHEMLMEQKEQSYQEHMKQLTEKMEQERKELMAEQQRIISLKLQEQERLLKQGFQNESLQLRQEIEKIKNMPPPRSCTIL

Legend:
[1] = tested on: human embryonic kidney cells HEK293; assay: Cytotoxicity (SYTOX incorporation, LDH release); details: 10 µg/ml; IncuCyte live imaging; LDH after 24 h
F. novicida [2] = format: cell-based, Francisella novicida
[3] = tested on: African green monkey kidney cells Vero; assay: Cytotoxicity (SYTOX incorporation, LDH release); details: 10 µg/ml; IncuCyte live imaging; LDH after 24 h
F. novicida [4] = tested on: F. novicida
primary mouse BMDMs = assay: Cytotoxicity (SYTOX incorporation, LDH release); details: 10 µg/ml; IncuCyte live imaging; LDH after 24 h
[5] = tested on: human intestinal epithelial cells HT29; assay: Cytotoxicity (SYTOX incorporation, LDH release); details: 10 µg/ml; IncuCyte live imaging; LDH after 24 h
N. meningitidis [6] = assay: Peptide and protein binding assay with SYTOX staining; format: cell-based, Neisseria meningitidis; details: for Localization to and killing of N. meningitidis (SYTOX): 10 µg/mL FITC-peptide, 1 h or 6 h
F. novicida [7] = format: cell-based, Francisella novicida; remark: listed apart in the source
E. coli [8] = assay: Bacterial viability assay (CFU); format: cell-based, Escherichia coli; details: 6 h
N. meningitidis [9] = assay: Bacterial viability assay (CFU or O.D.); format: cell-based, Neisseria meningitidis; details: 6 h
E. coli [10] = assay: Peptide and protein binding assay with SYTOX staining; format: cell-based, Escherichia coli
F. novicida [11] = format: binding, Francisella novicida
F. novicida [12] = format: cell-based, Francisella novicida; remark: listed apart in the source
[13] = tested on: isogenic lpxA mutant of N. meningitidis, which lacks LOS; assay: Bacterial viability assay (O.D.); format: cell-based, Neisseria meningitidis; details: mGBP1 protein at 0.4, 4 or 40 µM, 6 h; mutant lacking LOS

Row | Molecule | Cytotoxicity, SYTOX incorporation or LDH release, HEK293 [1] | SYTOX positive F. novicida, flow cytometry plot (F. novicida [2]) [%] | Cytotoxicity, SYTOX incorporation or LDH release, Vero [3] | Viability of F. novicida (percentage of CFU in relation to solvent control) (F. novicida [4]) | Cytotoxicity, SYTOX incorporation or LDH release, BMDMs (primary mouse BMDMs) | Cytotoxicity, SYTOX incorporation or LDH release, HT29 [5] | further results
1 | GTDENTKKFNMPRLCIRKFFPKRKCFIFDR [GBP1^209–238] | None of the peptides exhibited cytotoxicity | 9.2 | None of the peptides exhibited cytotoxicity | only GBP1^28–67 and WLBU2 exhibited | None of the peptides exhibited cytotoxicity | None of the peptides exhibited cytotoxicity | 
2 | {FITC}-[Ahx]KLIKLLDRLASRSVS [FITC-control peptide, reference compound] |  |  |  |  |  |  | Localization to and killing of N. meningitidis (SYTOX) (N. meningitidis [6]): this did not occur
3 | TFYKPGGYYLFLQRKQELEKKYIQTPGKG [GBP1^424–452] | None of the peptides exhibited cytotoxicity | 11.4 | None of the peptides exhibited cytotoxicity | only GBP1^28–67 and WLBU2 exhibited | None of the peptides exhibited cytotoxicity | None of the peptides exhibited cytotoxicity | 
4 | LLKQGFQNESLQLRQEIEKI [GBP1^558–577] | None of the peptides exhibited cytotoxicity | 4.7 | None of the peptides exhibited cytotoxicity | only GBP1^28–67 and WLBU2 exhibited | None of the peptides exhibited cytotoxicity | None of the peptides exhibited cytotoxicity | 
5 | IRILEQIAQPLVVVAIVGLYRTGKSYLMNRLAGRNHGFSL [GBP3^22–61] |  |  |  | bacterial killing in a dose-dependent manner |  |  | Morphology of F. novicida by SEM and TEM (F. novicida [7]): bacterial membrane damage and bacteriolysis of F. novicida
6 | RRWVRRVRRWVRRVVRVVRRWVRR [WLBU2, reference compound] |  | 90.7 |  | exhibited, in a dose-dependent manner, antibacterial activity |  |  | Uptake of SYTOX by F. novicida, quantification by flow cytometry (F. novicida [2]): induced a significant uptake of SYTOX; Viability of E. coli (percentage of CFU in relation to solvent control) (E. coli [8]; peptide at 0.1, 1 or 10 µg/ml): led to death of the bacteria; Morphology of F. novicida by SEM and TEM (F. novicida [7]): apoptosis-like blebbing and apoptosis-like bodies
7 | LDILSAIQNPVVVVAIVGFYHTGKSYLMNKLAGKQKGFSL [GBP1^28–67] | None of the peptides exhibited cytotoxicity |  | None of the peptides exhibited cytotoxicity |  | None of the peptides exhibited cytotoxicity | None of the peptides exhibited cytotoxicity | half maximal inhibitory concentration (IC50), viability of F. novicida (F. novicida [4]; 6 h): 5.04 µg/mL
8 | VVVVAIVGFYHTGKSYLMNKLAGKQKGFSL [GBP1^38–67] |  |  |  | little or no antimicrobial activity |  |  | Viability of N. meningitidis (percentage of CFU in relation to solvent control) (N. meningitidis [9]; peptide at 10 µg/ml): little or no antimicrobial activity
9 | {FITC}-[Ahx]LDILSAIQNPVVVVAIVGFYHTGKSYLMNKLAGKQKGFSL [FITC-GBP1^28–67] |  |  |  |  |  |  | Localization to and killing of N. meningitidis (SYTOX) (N. meningitidis [6]): localized to and killed N. meningitidis; Localization to bacteria and uptake of SYTOX, E. coli (E. coli [10]; 10 µg/mL FITC-peptide, 1 h or 6 h): this did not occur with E. coli; Binding to F. novicida exposed to NaCl, saponin or sarcosyl before addition of peptide (F. novicida [11]): did not impair the binding; FITC signal remaining on F. novicida already bound to peptide after exposure to NaCl, saponin or sarcosyl (F. novicida [11]): loss of FITC signal; Localization to bacteria and uptake of SYTOX, F. novicida (F. novicida [12]): localized to and induced uptake of SYTOX in F. novicida
10 | FYHTGKSYLMNKLAGKQKGFSL [GBP1^46–67] |  |  |  | little or no antimicrobial activity |  |  | Viability of N. meningitidis (percentage of CFU in relation to solvent control) (N. meningitidis [9]; peptide at 10 µg/ml): little or no antimicrobial activity
11 | LDILSAIQNPV [GBP1^28–38] |  |  |  | killed F. novicida and N. meningitidis similar to that observed for GBP1^28–67 |  |  | Viability of N. meningitidis (percentage of CFU in relation to solvent control) (N. meningitidis [9]; peptide at 10 µg/ml): killed F. novicida and N. meningitidis similar to that observed for GBP1^28–67; Viability of E. coli (percentage of CFU in relation to solvent control) (E. coli [8]; peptide at 10 µg/ml): unable to kill E. coli
12 | B1 |  |  |  | killed F. novicida in a dose-dependent manner |  |  | Localization to bacteria and uptake of SYTOX, N. meningitidis (N. meningitidis [6]; 40 µM mGBP1, 6 h): localized to N. meningitidis, resulting in the uptake of SYTOX; Viability of N. meningitidis (percentage of CFU in relation to solvent control) (N. meningitidis [9]; mGBP1 protein at 0.4, 4 or 40 µM): killed N. meningitis in a dose-dependent manner; Viability of WT N. meningitidis (percentage of O.D. in relation to solvent control) (N. meningitidis [9]; mGBP1 protein at 0.4, 4 or 40 µM, WT strain): can kill both WT and ΔlpxA mutant strains; Localization to bacteria and uptake of SYTOX, E. coli (E. coli [10]; 40 µM mGBP1 protein, 6 h): this did not occur with E. coli; Viability of N. meningitidis ΔlpxA mutant (percentage of O.D. in relation to solvent control) [13]: can kill both WT and ΔlpxA mutant strains; Morphology of F. novicida by SEM (F. novicida [7]): disruption of the membrane integrity, membrane rupture, and expulsion of intracellular content; Localization to bacteria and uptake of SYTOX, F. novicida (F. novicida [12]): localized to and induced uptake of SYTOX in F. novicida
